This note sets out measurements from patent US9381193B2, “Contraceptive methods and compositions” (WASHINGTON UNIVERSITY, priority 2011, dated 2016).

One series deals with human ESCs. As for the experimental part:
(§1) Endometrial tissue was obtained from human uteri after hysterectomy conducted for benign disease or from endometrial biopsies. Informed consent was obtained from each patient before surgery and protocols were approved by the Human Research Protection Office of Washington University (HRPO#07-0949). Tissues were placed in HBSS and transported to the laboratory. hESCs were isolated and cultured as previously described. In vitro decidualization was performed as previously described with several changes. Cells were seeded in 6-well plates at 2×10^5 cells/well in DMEM:F12 without phenol red, supplemented with 2% heat-inactivated charcoal dextran-stripped calf serum (HyClone) and 50 μg/ml penicillin/streptomycin (Cambrex Bio Science). Cells were treated with 1 μM medroxyprogesterone-17-acetate (MPA) (Sigma) and 0.5 mM N^6, 2′-O-Dibutyryladenosine 3′,5′-cyclic monophosphate sodium salt (db-cAMP) (Sigma). Control samples received 0.1% ethanol vehicle control.

For another series, the system named is human immortalized ESCs. The settings on record: 1 μM and 1.5 μM IA; 5-3H-glucose for four hours.
Series [1] relates to ESC-T cells. Nature of the series: In vitro decidualization of immortalized human ESC-T cells (decidualization marker mRNA, morphology). The class given is cell-based.
Text: Decidualization in human cells was monitored by measuring the mRNA expression of two decidualization markers, PRL and IGFBP1.
This NADP+ analog inhibits two enzymes in the PPP, G6PD and 6GPDH, which utilize NADP+ and convert it into NADPH.
Two major results of the PPP are the production of ribose 5-phosphate and regeneration of NADPH. Production of ribose 5-phosphate is a central component in the de novo synthesis of ribonucleosides (RNs) and deoxyribonucleosides (DRNs). […] To address this question, ESC-T cultures were used and the differentiation media was supplemented with RNs and DRNs during treatment with PPP inhibitors.
as §1
Human immortalized ESC (ESC telomerase immortalized, ESC-T), were decidualized in vitro in the presence of 0, 2.5 or 5 mM GlcN for 9 days.

Series [2] concerns ICR female mice. Briefly: Intrauterine time-release GlcN pellet and pups per litter. It counts as in vivo, mouse. The settings on record: time-release GlcN pellet (15-1500 μg) in one uterine horn; 60-day period. As for the experimental part:
FIG. 25A-B graphically depicts decreased birth rate by glucosamine in ICR mice. 6 weeks old ICR female mice were implanted with a control or GlcN (15-1500 μg) pellet on one uterine horn and (A) with or (B) without the hysterectomy on the other uterine horn. Pups per litter in pellet implanted female mice crossed with males were recorded. **, P<0.01.
(§2) Human immortalized ESC (ESC telomerase immortalized, ESC-T), were decidualized in vitro in the presence of 0, 2.5 or 5 mM GlcN for 9 days. […] Thus, it was concluded that perturbation of the PPP activity by GlcN might lead to the failure of ESC decidualization and thus possibly be one of the first non-hormonal inhibitors of decidualization. Finally, in vivo evidence is provided that female mice with a time-release GlcN pellet (15-1500 μg) implanted in one uterine horn, delivered fewer live pups per litter over a 60-day period than those with control pellet implantation (8.25 vs 4.23 pups/litter; FIG. 25).

For the next series, the target named is T1, G6PDH (Homo sapiens, UniProt P11413).
T1 construct: endogenous in cells; host or cells: human telomerase-immortalized endometrial stromal cells (ESC-T)
Briefly: G6PDH activity in decidualized ESC-T cells exposed to GlcN. It counts as cell-based. As for the experimental part: as §2

A further series has as its system human primary ESCs. Briefly: In vitro decidualization of human primary ESCs (decidualization marker mRNA). The class given is cell-based. From the text: (§3) In order to confirm that this is not a side effect of ESC immortalization with telomerase overexpression in this human cell line, the effect of DHEA on decidualization of primary ESC cultures from mouse and human uteri was also investigated. Murine ESCs were isolated from the gravid uterus at 4 days post coitus and cultured in vitro for 3 days to induce decidualization as described in the Methods. […] The human primary ESCs were isolated from uteri following hysterectomy for benign disease as outlined in the Methods and cultured in decidualization media for 9 days.
Control samples received 0.1% ethanol vehicle control.

A further series concerns ESC-T. Briefly: Viability of ESC-T with GlcN (MTT assay and flow cytometry). The class given is cell-based, human. The settings on record: 0, 2.5 or 5 mM GlcN for 9 days. The method, then:
as §2
In general terms: Tetrazolium assays rely on reduction of a dye to a coloured formazan, in cell work by metabolically active cells.

In the next series the test system is hESC-Ts. Briefly: Radiolabeled glucose flux (1-14C, 6-14C, 5-3H-glucose) in hESC-Ts. It counts as cell-based, human. As for the experimental part:
For these experiments, hESCs immortalized via overexpression of telomerase (hESC-Ts) were used. […] The response of these cells to PPP inhibitors was also tested in order to confirm their similar dependence on the pathway for differentiation. In order to determine glucose flux through the various metabolic pathways in ESCs the metabolic fates of 1-^14C—, 6-^14C—, and 5-^3H-glucose was followed. hESC-Ts were incubated for 3 h with one of the radiolabled glucoses and production of ^14CO2 or ^3H2O was compared between the four treatment groups, control, decidualized, and decidualized with 2 μM or 5 μM 6-AN (FIG. 6). […] This was an indication that the flux through the TCA cycle or PPP was decreased in the inhibitor-treated ESCs. […] Therefore, inhibiting G6PD with 6-AN has no effect on TCA flux, but directly lowers the metabolism of glucose through PPP. The ratio of 1-C:6-C, which summarizes the relative preference of the PPP, can then be seen as decreasing in the presence of the inhibitor 6-AN.
This indicates an increase in the amount of glucose entering glycolysis without continuing into the TCA cycle, possibly being converted into lactate.

For series [3], the system named is ICR female mice. Nature of the series: Intrauterine DHEA or 6-AN pellet and pregnancy outcome. It counts as in vivo, mouse. The method, then:
ICR female mice had either placebo (n=26), DHEA (1.5 mg/60 days)(n=20), or 6-AN pellets (150, 15, 1.5 mcg/60 days)(n=24) placed into the uterine horn after index delivery. Females were then mated and litter size was measured over the following 120 days post pellet. Mice were housed according to the Institutional Animal Care and use Committee and NIH guidelines. Day to first litter, number of litters, number of pups, average pups/litter were recorded. Serum DHEA levels were quantified (Alpco, Salem, N.H.). All pellets (placebo, DHEA, 6-AN) were custom-formulated (Innovative Research, Inc).

For series [4], the system named is ESC-T cells. Nature of the series: EdU incorporation proliferation assay. It counts as cell-based, human. From the text:
Other groups have shown that DHEA has anti-proliferative effects in a number of cell-lines and tissues. Thus, it was hypothesized that perhaps the PPP inhibitors prevent the proliferation of ESC-Ts and that this is an additional effect, independent of their role in decidualization inhibition. In a human uterus the stromal cells go through a cyclical oscillation between proliferation and differentiation, determined by the hormonal milieu. ESC-Ts in vitro remain in the proliferative state until they are exposed to differentiation media, which causes the cells to halt cell division and enter differentiation. Proliferation of ESC-T cells were monitored by EdU incorporation in vitro, which indicates entry into the S-phase of the cell cycle, in the absence of the differentiation hormones.
Following 60 hr of the treatment indicated in the experiment, EdU was added to the culture medium at a concentration of […]. Cells were harvested and stained using the Click-iT EdU Flow Cytometry Kit (Invitrogen). Quantitative data were collected using a BD FACSCalibur flow cytometer (Becton Dickinson, San Jose, Calif.) and analyzed with FlowJo software (TreeSTar, Inc., Ashland, Oreg.). For confocal microscopy, the cells were stained on coverslips using the same protocol. Nuclei were counterstained with TOPRO-iodide (Molecular probes) at a 1:500 dilution. Cells were mounted on slides using Vectashield (Vector Labs) and visualized using a Nikon C1 microscope.

In a further series the test system is murine ESCs. Briefly: In vitro decidualization of primary murine ESCs (Prp mRNA). Conditions: 3 days in vitro culture. It counts as cell-based, mouse.
Text: as §3
For in vitro decidualization of ESCs, female mice were sacrificed at 4dpc. Pregnancy was confirmed by flushing dissected uterine horns and ostia with HBSS and observing for presence of blastocysts. Uteri confirmed for pregnancy were cut into 1 mm^3 pieces and incubated in Dulbecco's modified Eagle's Medium:F12 medium (DMEM:F12) without phenol red supplemented with 2 g/liter Collagenase Type I (Gibco) for 60-90 min at 37° C. Tissues were vortexed every 15 min during incubation. Following incubation, the solution was passed through a 40 μm sieve (BD Falcon) and centrifuged at 1100 rpm for 5 min. […]

The mark [5] stands for this setting: decidualized cells with 2 μM or 5 μM 6-AN, 3 h.

T1 sequence (P11413 whole entry): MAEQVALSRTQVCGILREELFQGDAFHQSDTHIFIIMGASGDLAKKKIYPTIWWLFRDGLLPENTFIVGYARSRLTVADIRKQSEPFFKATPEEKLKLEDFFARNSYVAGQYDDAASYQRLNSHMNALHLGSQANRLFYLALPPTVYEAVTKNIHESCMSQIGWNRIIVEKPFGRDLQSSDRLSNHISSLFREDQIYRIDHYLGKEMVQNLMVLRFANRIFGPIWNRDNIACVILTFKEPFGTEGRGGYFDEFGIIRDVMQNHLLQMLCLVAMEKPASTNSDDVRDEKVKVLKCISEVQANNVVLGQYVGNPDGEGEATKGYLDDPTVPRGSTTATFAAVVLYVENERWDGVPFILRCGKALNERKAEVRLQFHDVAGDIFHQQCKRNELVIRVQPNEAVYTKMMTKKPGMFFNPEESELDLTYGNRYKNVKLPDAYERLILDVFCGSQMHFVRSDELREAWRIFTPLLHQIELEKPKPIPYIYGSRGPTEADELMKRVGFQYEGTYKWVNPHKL
Description for human immortalized ESCs: In order to confirm inhibition of glycolysis, human immortalized ESCs were incubated in the presence of 5-^3H-glucose for four hours and the amount of ^3H2O production (H2O produced from the 5th hydrogen of glucose is a product of glycolysis) in ESCs exposed to different concentrations of IA was measured (FIG. 2b).

`O=C(O)CI` [IA, Iodoacetate]: the “Decidualization assessed by Prl marker expression” value in the series with human ESCs (IA concentrations below the toxic threshold) is reported as “not affected”. Also, the “Concentration inducing cell death” value in the series with human ESCs (within 24 hr of administration) was at least 2000 nM. In addition, in the series on human immortalized ESCs, the “Reduction of flux of glucose through glycolysis” value was determined as 40%.

For `N[C@H]1C(O)O[C@H](CO)[C@@H](O)[C@@H]1O` (some centres unmarked) [GlcN, glucosamine], the “mRNA expression of prolactin, somatostatin, interleukin-15, left-right determination factor 2, tissue inhibitor of metalloproteinase 3” value with ESC-T cells [1] (GlcN 2.5 or 5 mM, quantitative RT-PCR) was “significantly lower expression levels”; in the series with human primary ESCs (GlcN, day 9 of culture), “significantly lower expression levels”. For the same compound, in the series on ESC-T cells [1] (GlcN, day 3 through day 9), the “Expression levels of PRL and SMST over time” value is reported as “decreased the expression levels”. Also, the “Live pups per litter” value in the series on ICR female mice [2] is listed as 4.23 pups/litter. The “G6PDH activity vs control cells” value at G6PDH was “significantly lower”. The Viability / proliferation result in the series on ESC-T is on record as “viability similar to control cells”.

Take `NC(=O)c1ccc(N)nc1` [6-AN, 6-aminonicotinamide]: in the series with hESC-Ts (setting [5]), the “Metabolism of glucose labeled at the C-1 position (14CO2)” value is “lower in the decidualized cells exposed to 6-AN in a concentration dependent manner” and the “Metabolism of the 6-C labeled glucose (14CO2)” value is reported as “not affected”. For the same compound, the “Glycolytic flux of 5-3H labeled glucose” value in the series on hESC-Ts (decidualized cells with 5 μM 6-AN) was “returned almost to the same levels as the control”. Further, the “Ratio of 1-C:6-C (relative preference of the PPP)” value with hESC-Ts (presence of 6-AN) is “decreasing”. Besides, the “Expression of PRL and IGFBP” value in the series on ESC-T cells [1] (10 μM 6AN, day 3 to day 9 in culture) is given as “inhibited”. For the same compound, the “Reduction in average pup/litter size” value in the series with ICR female mice [3] (6-AN pellet, not significant from control (p=0.4)) came to 37.7%. Moreover, in the series with ICR female mice [3] (intrauterine pellet: DHEA 1.5 mg/60 days, 6-AN 150, 15, 1.5 mcg/60 days, controls 27 days), the “Average time to first litter” value was 34 days. Further, the “EdU-positive nuclei vs DMSO control” value in the series with ESC-T cells [4] (100 μM DHEA, 50 μM 6AN) is on record as “drastic decrease”. For the same compound, the “Proliferation by EdU geometric mean fluorescence intensity (flow cytometry)” value in the series on ESC-T cells [4] (4 independent experiments) was “decreases proliferation of ESC-Ts in a concentration dependent manner”. In the series on human primary ESCs (9 days in decidualization media), the “Expression of PRL and IGFBP1” value is given as “decreased”. In the series on murine ESCs, the “Prp mRNA expression” value was “decreased Prp expression”.
